From ChEMBL document CHEMBL1201862, “PubChem BioAssay data set” (2004)
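A five-concentration, 48-hour dose response in 96-well plates underlies each endpoint, interpolated linearly between surrounding concentrations. GI50 marks 50% less growth.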 Active and inactive are the calls of the source. Cut-off read from the data, not from the text of the source: active = GI50 up to about 1.1 µM and inactive = higher.

What was measured:
Test in all cases: NCI anticancer screen, dose series, 48 h
786-0 = test system: 786-0
A498 = test system: A498
A549 = test system: A549
ACHN = test system: ACHN
BT-549 = test system: BT-549
CAKI-1 = test system: CAKI-1
CCRF-CEM = test system: CCRF-CEM
COLO 205 = test system: COLO 205
DU-145 = test system: DU-145
EKVX = test system: EKVX
HCT-116 = test system: HCT-116
HCT-15 = test system: HCT-15
HL-60 = test system: HL-60
HOP-62 = test system: HOP-62
HOP-92 = test system: HOP-92
HT-29 = test system: HT-29
Hs-578T = test system: Hs-578T
IGROV-1 = test system: IGROV-1
K562 = test system: K562
KM12 = test system: KM12
LOX IMVI = test system: LOX IMVI
M14 = test system: M14
MCF7 = test system: MCF7
MDA-MB-231 = test system: MDA-MB-231
MDA-MB-435 = test system: MDA-MB-435
MDA-N = test system: MDA-N
MOLT-4 = test system: MOLT-4
Malme-3M = test system: Malme-3M
NCI-H226 = test system: NCI-H226
NCI-H23 = test system: NCI-H23
NCI-H460 = test system: NCI-H460
NCI-H522 = test system: NCI-H522
NCI/ADR-RES = test system: NCI/ADR-RES
OVCAR-3 = test system: OVCAR-3
OVCAR-4 = test system: OVCAR-4
OVCAR-5 = test system: OVCAR-5
OVCAR-8 = test system: OVCAR-8
PC-3 = test system: PC-3
RPMI-8226 = test system: RPMI-8226
RXF 393 = test system: RXF 393
SF-268 = test system: SF-268
SF-295 = test system: SF-295
SK-MEL-28 = test system: SK-MEL-28
SK-MEL-2 = test system: SK-MEL-2
SK-MEL-5 = test system: SK-MEL-5
SK-OV-3 = test system: SK-OV-3
SN12C = test system: SN12C
SNB-19 = test system: SNB-19
SNB-75 = test system: SNB-75
SR = test system: SR
SW-620 = test system: SW-620
T47D = test system: T47D
TK-10 = test system: TK-10
U-251 = test system: U-251
UACC-257 = test system: UACC-257
UACC-62 = test system: UACC-62
UO-31 = test system: UO-31
HCC 2998 = test system: HCC 2998
SF-539 = test system: SF-539

`c1ccc(C[n+]2cccc(-c3cc4ccccc4[nH]3)c2)cc1` was tested, and the GI50 (786-0) was 50.1 µM (inactive), the GI50 (A498) was 39.5 µM (inactive) and the GI50 (A549) was 91.2 µM (inactive). For the same compound, the GI50 (ACHN) was > 100 µM (inactive), the GI50 (BT-549) was 13.4 µM (inactive) and the GI50 (CAKI-1) was > 100 µM (inactive). The GI50 (CCRF-CEM) was 19.9 µM (inactive), the GI50 (COLO 205) was 15 µM (inactive) and the GI50 (DU-145) was 47.4 µM (inactive). The GI50 (EKVX) was 42.8 µM (inactive), the GI50 (HCT-116) was 32.5 µM (inactive) and the GI50 (HCT-15) was over 100 µM. The GI50 (HL-60) was 17.6 µM (inactive), the GI50 (HOP-62) was 31.8 µM (inactive) and the GI50 (HOP-92) was 16.4 µM (inactive). The GI50 (HT-29) was 32.5 µM (inactive), the GI50 (Hs-578T) was 20.2 µM (inactive) and the GI50 (IGROV-1) was 19.4 µM (inactive). The GI50 (K562) was 21.6 µM (inactive), the GI50 (KM12) was 16.6 µM (inactive) and the GI50 (LOX IMVI) was 19.1 µM (inactive). For the same compound, the GI50 (M14) was 21.7 µM (inactive), the GI50 (MCF7) was 27.6 µM (inactive) and the GI50 (MDA-MB-231) was 37.2 µM (inactive). For the same compound, the GI50 (MDA-MB-435) was 18.5 µM (inactive), the GI50 (MDA-N) was 19.1 µM (inactive) and the GI50 (MOLT-4) was 21.5 µM (inactive). The GI50 (Malme-3M) was 14.6 µM (inactive), the GI50 (NCI-H226) was 31.2 µM (inactive) and the GI50 (NCI-H23) was 16.4 µM (inactive). The GI50 (NCI-H460) was 25.3 µM (inactive), the GI50 (NCI-H522) was 16.4 µM (inactive) and the GI50 (NCI/ADR-RES) was > 100 µM (inactive). For the same compound, the GI50 (OVCAR-3) was 31 µM (inactive), the GI50 (OVCAR-4) was 40.2 µM (inactive) and the GI50 (OVCAR-5) was 42.7 µM (inactive). The GI50 (OVCAR-8) was 38.3 µM (inactive), the GI50 (PC-3) was 39.2 µM (inactive) and the GI50 (RPMI-8226) was 17.6 µM (inactive). For the same compound, the GI50 (RXF 393) was > 100 µM (inactive), the GI50 (SF-268) was 17.6 µM (inactive) and the GI50 (SF-295) was 77.8 µM (inactive). For the same compound, the GI50 (SK-MEL-28) was 16.4 µM (inactive), the GI50 (SK-MEL-2) was 16.6 µM (inactive) and the GI50 (SK-MEL-5) was 10.6 µM (inactive). The GI50 (SK-OV-3) was > 100 µM (inactive), the GI50 (SN12C) was 15.4 µM (inactive) and the GI50 (SNB-19) was 26.5 µM (inactive). The GI50 (SNB-75) was 29.4 µM (inactive), the GI50 (SR) was 32.1 µM (inactive) and the GI50 (SW-620) was 72.6 µM (inactive). For the same compound, the GI50 (T47D) was 23.6 µM (inactive), the GI50 (TK-10) was 32.7 µM (inactive) and the GI50 (U-251) was 34.5 µM (inactive). For the same compound, the GI50 (UACC-257) was 14.9 µM (inactive), the GI50 (UACC-62) was 15.7 µM (inactive) and the GI50 (UO-31) was > 100 µM (inactive).

In the case of `C1=C\SS/C=C\SS/C=C\SS/C=C\SS/1`, the GI50 (786-0) is reported as 46 µM (inactive), the GI50 (A498) is reported as > 100 µM (inactive) and the GI50 (A549) is reported as > 100 µM (inactive). For the same compound, the GI50 (ACHN) was > 100 µM (inactive), the GI50 (BT-549) was > 100 µM (inactive) and the GI50 (CAKI-1) was 30.3 µM (inactive). The GI50 (CCRF-CEM) was 10.2 µM (inactive), the GI50 (COLO 205) was > 100 µM (inactive) and the GI50 (DU-145) was > 100 µM (inactive). The GI50 (EKVX) was > 100 µM (inactive), the GI50 (HCC 2998) was > 100 µM (inactive) and the GI50 (HCT-116) was > 100 µM (inactive). The GI50 (HCT-15) was 21.5 µM, the GI50 (HL-60) was 24.9 µM (inactive) and the GI50 (HOP-62) was 69.7 µM (inactive). The GI50 (HOP-92) was 75.7 µM (inactive), the GI50 (HT-29) was 31.6 µM (inactive) and the GI50 (Hs-578T) was > 100 µM (inactive). The GI50 (IGROV-1) was > 100 µM (inactive), the GI50 (K562) was 27.9 µM (inactive) and the GI50 (KM12) was > 100 µM (inactive). For the same compound, the GI50 (LOX IMVI) was 42.4 µM (inactive), the GI50 (M14) was 83.9 µM (inactive) and the GI50 (MCF7) was 46.7 µM (inactive). For the same compound, the GI50 (MDA-MB-231) was > 100 µM (inactive), the GI50 (MDA-MB-435) was > 100 µM (inactive) and the GI50 (MDA-N) was > 100 µM (inactive). For the same compound, the GI50 (MOLT-4) was 42.3 µM (inactive), the GI50 (Malme-3M) was 41.7 µM (inactive) and the GI50 (NCI-H226) was > 100 µM (inactive). For the same compound, the GI50 (NCI-H23) was > 100 µM (inactive), the GI50 (NCI-H460) was 22.9 µM (inactive) and the GI50 (NCI-H522) was 15.2 µM (inactive). The GI50 (NCI/ADR-RES) was > 100 µM (inactive), the GI50 (OVCAR-4) was > 100 µM (inactive) and the GI50 (OVCAR-5) was > 100 µM (inactive). For the same compound, the GI50 (OVCAR-8) was 44.8 µM (inactive), the GI50 (PC-3) was > 100 µM (inactive) and the GI50 (RPMI-8226) was 58.7 µM (inactive). The GI50 (RXF 393) was 80.9 µM (inactive), the GI50 (SF-268) was 70.8 µM (inactive) and the GI50 (SF-295) was 45.3 µM (inactive). For the same compound, the GI50 (SK-MEL-28) was > 100 µM (inactive), the GI50 (SK-MEL-2) was > 100 µM (inactive) and the GI50 (SK-MEL-5) was 99.3 µM (inactive). The GI50 (SK-OV-3) was > 100 µM (inactive), the GI50 (SN12C) was > 100 µM (inactive) and the GI50 (SNB-19) was 67.5 µM (inactive). The GI50 (SR) was 54.1 µM (inactive), the GI50 (SW-620) was 51.4 µM (inactive) and the GI50 (T47D) was > 100 µM (inactive). The GI50 (TK-10) was > 100 µM (inactive), the GI50 (U-251) was 81.8 µM (inactive) and the GI50 (UACC-257) was 78.5 µM (inactive). For the same compound, the GI50 (UACC-62) was > 100 µM (inactive) and the GI50 (UO-31) was > 100 µM (inactive).

`O=c1c2ccccc2[nH]n1Cc1ccccc1` was tested, and the GI50 (786-0) was > 100 µM (inactive), the GI50 (A498) was > 100 µM (inactive) and the GI50 (A549) was > 100 µM (inactive). The GI50 (ACHN) was > 100 µM (inactive), the GI50 (BT-549) was > 100 µM (inactive) and the GI50 (CAKI-1) was > 100 µM (inactive). The GI50 (CCRF-CEM) was > 100 µM (inactive), the GI50 (COLO 205) was > 100 µM (inactive) and the GI50 (DU-145) was > 100 µM (inactive). For the same compound, the GI50 (EKVX) was > 100 µM (inactive), the GI50 (HCC 2998) was > 100 µM (inactive) and the GI50 (HCT-116) was > 100 µM (inactive). The GI50 (HCT-15) was over 100 µM, the GI50 (HL-60) was > 100 µM (inactive) and the GI50 (HOP-62) was > 100 µM (inactive). The GI50 (HOP-92) was > 100 µM (inactive), the GI50 (HT-29) was > 100 µM (inactive) and the GI50 (Hs-578T) was > 100 µM (inactive). For the same compound, the GI50 (IGROV-1) was > 100 µM (inactive), the GI50 (K562) was > 100 µM (inactive) and the GI50 (KM12) was > 100 µM (inactive). The GI50 (LOX IMVI) was > 100 µM (inactive), the GI50 (M14) was > 100 µM (inactive) and the GI50 (MCF7) was > 100 µM (inactive). The GI50 (MDA-MB-231) was > 100 µM (inactive), the GI50 (MDA-MB-435) was > 100 µM (inactive) and the GI50 (MDA-N) was > 100 µM (inactive). The GI50 (MOLT-4) was > 100 µM (inactive), the GI50 (NCI-H226) was > 100 µM (inactive) and the GI50 (NCI-H23) was > 100 µM (inactive). The GI50 (NCI-H460) was > 100 µM (inactive), the GI50 (NCI-H522) was > 100 µM (inactive) and the GI50 (NCI/ADR-RES) was > 100 µM (inactive). The GI50 (OVCAR-3) was > 100 µM (inactive), the GI50 (OVCAR-4) was > 100 µM (inactive) and the GI50 (OVCAR-5) was > 100 µM (inactive). For the same compound, the GI50 (OVCAR-8) was > 100 µM (inactive), the GI50 (PC-3) was > 100 µM (inactive) and the GI50 (RPMI-8226) was > 100 µM (inactive). The GI50 (RXF 393) was > 100 µM (inactive), the GI50 (SF-268) was > 100 µM (inactive) and the GI50 (SF-295) was > 100 µM (inactive). For the same compound, the GI50 (SF-539) was > 100 µM (inactive), the GI50 (SK-MEL-28) was > 100 µM (inactive) and the GI50 (SK-MEL-2) was > 100 µM (inactive). For the same compound, the GI50 (SK-MEL-5) was > 100 µM (inactive), the GI50 (SK-OV-3) was > 100 µM (inactive) and the GI50 (SN12C) was > 100 µM (inactive). The GI50 (SNB-19) was > 100 µM (inactive), the GI50 (SNB-75) was > 100 µM (inactive) and the GI50 (SR) was > 100 µM (inactive). For the same compound, the GI50 (SW-620) was > 100 µM (inactive), the GI50 (T47D) was > 100 µM (inactive) and the GI50 (TK-10) was > 100 µM (inactive). For the same compound, the GI50 (U-251) was > 100 µM (inactive), the GI50 (UACC-257) was > 100 µM (inactive) and the GI50 (UACC-62) was > 100 µM (inactive). For the same compound, the GI50 (UO-31) was > 100 µM (inactive).
